# Key:
# HeLa cells [1] = experiment: Pulse-field gel electrophoresis assay of MNNG-induced DNA damage in HeLa cells; assay type: cell-based, human; details: DPQ 30 μM; ISO-1 100 μM
# Excerpt: FIGS. 2A-2D. FIG. 2. MIF is a novel nuclease that cleaves genomic DNA.
# cortical neurons = details: N-Arg 100 μM
# Experimental: (H-J) Nuclear translocation of AIF and MIF after NMDA treatment in the presence or absence PARP inhibitor DPQ or nNOS inhibitor nitro-arginine (N-Arg, 100 μM) in cortical neurons, which was determined by subcellular fractionation. Intensity of MIF and AIF signal is shown in I & J. The experiments were replicated in three independent trials. The experiments were replicated in three independent trials. ***P<0.001, one-way ANOVA.
# Primary neuronal cultures from cortex were prepared as previously described (9). Briefly, the cortex was dissected and the cells were dissociated by trituration in modified Eagle's medium (MEM), 20% horse serum, 30 mM glucose, and 2 mM L-glutamine after a 10-min digestion in 0.027% trypsin/saline solution (Gibco-BRL). The neurons were plated on 15-mm multiwell plates coated with polyornithine or on coverslips coated with polyornithine. Neurons were maintained in MEM, 10% horse serum, 30 mM glucose, and 2 mM L-glutamine in a 7% CO2 humidified 37° C. incubator. The growth medium was replaced twice per week. In mature cultures, neurons represent 70 to 90% of the total number of cells. […] Parthanatos was induced by either MNNG (Sigma) in HeLa cells or NMDA (Sigma) in neurons. […]
# HeLa cells [2] = assay type: cell-based, human; details: DPQ 30 μM
# Experimental: FIGS. 21A-21J. FIG. 21. […] Scale bar, 20 μm.
# For immunocytochemistry, cells were fixed 4 hours after MNNG or NMDA treatment with 4% paraformaldehyde, permeabilized with 0.05% Triton X-100, and blocked with 3% BSA in PBS. AIF was visualized by Donkey anti-Rabbit Cy3 or donkey anti-rabbit 647. MIF was visualized by donkey anti-mouse cy2 (2 μg/ml), donkey anti-goat Cy2 or donkey anti-goat 647. Immunohistochemistry was performed with an antibody against Flag. Immunofluorescence analysis was carried out with an LSM710 confocal laser scanning microscope (Carl Zeiss) as described (9).
structure (smiles),measurement,setting,value
"O=C1NCCc2c(OCCCCN3CCCCC3)cccc21 [DPQ, 3,4-dihydro-5[4-(1-piperindinyl)butoxy]-1(2H)-isoquinoline]",Effect on MNNG induced DNA damage / DNA cleavage,HeLa cells [1],prevents MNNG induced DNA cleavage
same,Accumulation of MIF and AIF in the nucleus after NMDA administration,cortical neurons,prevents accumulation of both MIF and AIF in the nucleus
same,Accumulation of MIF and AIF in the nucleus after MNNG treatment,HeLa cells [2],prevents accumulation of both MIF and AIF in the nucleus
